Experiments:
Type in all cases: cell-based
[1] = test system: Cupriavidus metallidurans CH34; assay: Minimum inhibitory concentration (MIC) of heavy metals in agar plates, strain CH34; details: Tris mineral salts medium, increasing metal concentrations
From the text: (§1) The increase of the heavy metal resistance of the novel strain Cupriavidus metallidurans MSR33 was confirmed measuring minimum inhibitory concentration (MIC) of heavy metals in agar plates containing Tris mineral salts medium supplemented with increasing heavy metal concentrations and the organomercurial compound methylmercury.

[2] = test system: Cupriavidus metallidurans MSR33; assay: Minimum inhibitory concentration (MIC) of heavy metals in agar plates, strain MSR33; details: for Improved resistance (fold): MIC of MSR33 relative to CH34; for MIC, strain MSR33: agar plates, Tris mineral salts medium, increasing metal concentrations
From the text: as §1

[3] = test system: Cupriavidus metallidurans MSR33; assay: Growth in Tris mineral salts medium with Hg(II) added at mid-exponential phase, strain MSR33; details: Hg(II) 8 μg/g added at mid-exponential phase, succinate
Procedure: (§2) To characterize the novel mercury resistance capabilities, the recombinant strain Cupriavidus metallidurans MSR33 was grown in minimal medium supplemented with succinate as sole carbon source and energy and in the presence or absence of mercury. Cupriavidus metallidurans strain CH34 was also grown in these conditions.
(§3) The growth of both strains is similar in absence of Hg (II).

[4] = test system: Cupriavidus metallidurans strain CH34; assay: Growth in Tris mineral salts medium with Hg(II) added at exponential phase, strain CH34; details: Hg^2+ 8 μg/g added at exponential phase, succinate
Procedure: as §2, §3

Row | SMILES | MIC, strain CH34 ([1]; parental strain CH34) [µg/g] | Improved resistance (fold) [2] [fold] | MIC, strain MSR33 [2] [µg/g] | effect on growth of strain MSR33 [3] | effect on growth of strain CH34 [4] | MIC, strain CH34 ([1]; parental strain CH34, listed as CH3Hg^+)
1 | [Cd+2] [Cd^2+] | 100 | 1.6 | 160 | – | – | –
2 | [Cu+2] [Cu^2+] | 240 | – | 240 | – | – | –
3 | [Hg+2] [Hg^2+] | 10 | 2.4 | 24 | do not affect the growth | no further growth | –
4 | [CH3][Hg][Cl] [MeHg^+, methylmercury] | <1 | >18.0 | 18 | – | – | sensitive

From US8846376B2, “Recombinant bacterium capable of removing mercury (II) species, cadmium (II) and copper (II) in presence of other heavy metals from polluted sites, product for the bioremediation, process of obtaining the product and method of bioremediation” (Universidad Tecnica Federico Santa Maria, priority 2009, dated 2014)
